Data: patent US12251370B2, “Small molecule inhibitors of the BfrB:Bfd interaction” (BOARD OF SUPERVISORS OF LOUISIANA STATE UNIVERSITY AND …, priority 2018, dated 2025)
Where “and” joins values, the source holds several entries; their conditions need not be identical. Equal entries are not always repeated.

Assays:
P. aeruginosa = experiment: Growth curves and IC50 determination in P. aeruginosa; type: cell-based, Pseudomonas aeruginosa (PAO1); conditions: Pseudomonas aeruginosa; M63 media; growth % from OD600 at 13 h; three independent experiments
Description: Pre-cultures (5 mL LB media) were grown for 12 h at 37° C. and 220 rpm in 50 mL conical tubes (VWR International, PA) covered with an air permeable membrane. The cells were then centrifuged at 4,000 rpm for 10 min, the resultant cell pellets washed twice in M63 media and then diluted in M63 media to OD600=0.01. Stock solutions (100 mM) of analog in DMSO were prepared weekly and stored at 4° C. Prior to initiating experiments in 96 well plates, the analog stock solution was serially diluted to make 10 mM or 1 mM working solutions in DMSO. A small volume of the appropriate working solution was transferred to a glass vial, diluted with DMSO to 30 μL, and then diluted to a final volume of 1.5 mL with pre-culture cell suspension with an OD600=0.01. The resultant cell suspension (200 μL) was transferred to a clear-bottom polystyrene 96 well plate (VWR), and incubated at 35° C. and 205 cpm for 13 h in an Epoch 2 microplate spectrophotometer (Biotek Instruments, Inc., Vermont). The growth curve in the presence of Ciprofloxacin was obtained in the same plate. […] MIC determinations were carried out using standard broth microdilution methods in 48 well plates and modified M63 media. Cells were incubated at 35° C.

P. aeruginosa cells = experiment: microbe, parasite or virus in culture; type: cell-based, Pseudomonas aeruginosa; conditions: 13 h
Description: These experiments were carried out in 96 well plates, as described above. […] The 500-fold diluted solution was centrifuged and the cell-free supernatant was analyzed for pyoverdin by fluorescence spectrophotometry in a Synergy H1 microplate reader (BioTek) with excitation at 400 nm and emission at λmax=455 nm. Full emission spectra (430-550 nm) were also recorded using a Perkin Elmer LS50B spectrophotometer.
As indicated above, genetic manipulations were used in prior work to delete the bfd gene (Δbfd) and evaluate the consequences of inhibiting the BfrB-Bfd interaction in P. aeruginosa.^18 Preventing the BfrB-Bfd interaction in the Δbfd mutant cells dysregulates iron homeostasis by causing the irreversible accumulation of iron in BfrB and the concomitant depletion of free iron levels in the cytosol. […] To analyze the levels of secreted pyoverdin, cells were pelleted and the supernatant was diluted 500-fold prior to measuring the fluorescence intensity at 455 nm (FIG. 7B).

P. aeruginosa PAO1 = experiment: Effect of analogs on the potency of fluoroquinolone antibiotics, strain PAO1; type: cell-based, Pseudomonas aeruginosa; conditions: PAO1
Description: (§1) The combined treatment was carried out similarly, ensuring that the final concentration of DMSO was 2%.

[1] = test system: P. aeruginosa clinical isolate MR3B; experiment: Effect of analog on ciprofloxacin potency, clinical isolate MR3B; type: cell-based, Pseudomonas aeruginosa
Description: as §1

[2] = test system: wild type P. aeruginosa cells; experiment: Growth response of wild type cells to analog (viable cell count); type: cell-based, Pseudomonas aeruginosa; conditions: M63 + 4 μM Fe; 15 h post-inoculation; viable cells vs untreated control
Description: To this end, wild type and ΔbfrB cells were cultured in M63 media supplemented with 4 μM Fe, in the presence of different concentrations of analog. […] Since BfrB is not essential, it is likely that the cell can compensate for the absence of the iron storage protein. […] The sudden onset of toxicity observed in the second phase, which is not observed with the wild type cells, is probably related to off-target effects that expose a fitness vulnerability caused by the absence of BfrB. Consequently, it is possible to conclude that the dose-dependent growth defect elicited by 11 or 16 on wild type P. aeruginosa cells is largely a consequence of the interaction between the small molecule inhibitors and BfrB in the bacterial cell. This issue was investigated in additional detail (see below) by probing the phenotypic and biochemical response of wild type cells treated with the small molecule inhibitors.

O=C1NC(=O)c2c(NCCCc3cccc(O)c3)cccc21 [Analog 16, 4-((3-(3-Hydroxyphenyl)propyl)amino)isoindoline-1,3-dione]
IC50 (P. aeruginosa): 121 µM | viability at 125 µM (P. aeruginosa cells; Pseudomonas aeruginosa, read-out: viable cells relative to untreated control): ~30% | pyoverdin secreted, fluorescence normalized to viable cells (CFU/mL), relative to untreated control (P. aeruginosa cells; analog 125 μM, emission 455 nm): ~4.5 fold and ~4 fold | % survival, fold lower relative to ciprofloxacin alone (P. aeruginosa PAO1; analog 16 125 μM + ciprofloxacin 0.25 μg/mL): approximately 50 fold | cell survival, fold lower relative to fluoroquinolone alone (P. aeruginosa PAO1; analog 16 125 μM + levofloxacin 0.5 μg/mL): approximately 50 fold | cell survival, fold lower relative to fluoroquinolone alone (P. aeruginosa PAO1; analog 16 125 μM + norfloxacin 0.9 μg/mL): approximately 50 fold | survival relative to untreated control (P. aeruginosa PAO1; analog 16 only, 125 μM, 18 h): ~30% | survival, fold lower relative to ciprofloxacin alone ([1]; analog 16 + ciprofloxacin): approximately 20 fold | survival ([1]; analog 16 + ciprofloxacin 0.2 μg/mL): 0.5% | survival ([1]; analog 16 only, 125 μM): ca. 50% | growth response of wild type cells [2]: monophasic dose-dependent growth defect
